Measurements: US11865176B2, “Compositions and methods of modulating anti-tumor immunity” (Dana-Farber Cancer Institute, Inc., priority 2016, dated 2024)

Key:
[1] = system: tumor-infiltrating CD3+ T cells; experiment: Single-cell RNA-seq of tumor-infiltrating CD3+ T cells from KP GEMM lung tumors; type: in vivo, mouse
Text: Library preparation and pre-processing: Single-cell suspensions from KrasG^12D/+Trp53^fl/fl GEMM mice treated with trilaciclib were isolated as described for tumor-infiltrating immune cells, with modifications. After isolation, live cells were stained and sorted for the CD45+CD3+DAPI-population and plated at one cell/well of a skirted twin.tec 96-well plate (Eppendorf) containslxTCL buffer (Qiagen cat #1031576) spiked with ERCC (Ambion, 1:2,000,000 dilution ratio). A total of four 96-well plates were generated, two plates with and two plates without ERCC spike-ins. After sorting, full-length RNA-seq from isolated single cells was performed according to SMART-seq2 protocol with modifications. Briefly, total RNA was purified using RNA-SPRI beads. Poly(A)+ mRNA was converted to cDNA for amplification. The converted cDNA transcript was subject to barcoding specific to each sample using transposon-based fragmentation that used dual-indexing. For single-cell sequencing, each cell was given its own combination of barcodes. Barcoded cDNA fragments were then pooled prior to sequencing. Sequencing was carried out as paired-end (PE) 2×36 bp with an additional 8 cycles for each index on NexSeq 500 desktop sequencer (Illumina). To obtain quantitative mapping information, PE reads were mapped to the mouse genome (mm9), concatenated with ERCC sequences for spiked-in samples, by STAR (56). Estimated transcript counts and transcripts per million (TPM) for the mouse Gencode vM1 annotation, concatenated with ERCC sequence information for spiked-in samples, were obtained using the pseudo-aligner Kallisto (57). Aggregated and library scaled TPM values for genes were obtained according to the methods described (58) and were used in further downstream differential distribution, Gene Ontology and cell cycle analysis. […] Genes were considered not expressed if TPM<1 and were subsequently removed if not detected in at least 10% of remaining cells. The single-cell RNA-seq results have been deposited in NCBI's Gene Expression Omnibus and are accessible through GEO Series accession number GSE89477 (https://www.ncbi.nlm.nih.gov/geo/query/acc.cgi?acc=GSE89477).
We used a multi-step approach using the R package SCONE to identify the optimal normalization strategy and account for possible batch effects, observed and hidden technical covariates (59). […] Next, these genes were used in the SCONE framework as negative control genes for unwanted variation for all plates. We continued with highest scored normalization strategy according to SCONE metrics, which included adjusting for batch and biological effects, removal of observed technical variation based on previously identified quality metrics, scaling for library size with DESeq, and imputing drop-out events using a combined clustering and probabilistic scoring algorithm.
To assign cells to a cell-cycle stage we applied the cyclone classification tool as previously described (60).
Subsequently, we combined two approaches. […] Next, these genes were used to perform PCA and the 100 most correlated and anti-correlated genes for the first 5 principal components were retained for reducing dimensionality and separating cells in gene expression space with t-SNE. Distinct groups were identified applying density based clustering (dbscan) on the t-SNE generated coordinates, resulting in three (3) groups of cells.
Genes that display differential distribution between previously identified groups or between treatments were discovered by performing pairwise comparisons with the scDD (http://biorxiv.org/content/early/2015/12/29/035501) package in R. Enriched biological processes were identified using the online GOrilla tool (http://bmcbioinformatics.biomedcentral.com/articles/10.1186/1471-2105-10-48).

CDK4/6 = experiment: Kinome profiling (KINOMEscan), selectivity; type: binding; conditions: compared with abemaciclib
Protocol: Palbociclib and abemaciclib were profiled by DiscoveRx using KINOMEscan (55). Briefly, the two compounds were tested at 100 nM and 1000 nM. Targeted kinases were visualized using the TREEspot™ compound profile visualization tool. Z'LYTE™ kinase assays were conducted for GSK3α and GSK3β at Life Technologies using Km ATP concentrations.

[2] = system: splenic T cells (Tconv, CD8+, Treg); experiment: Cell co-culture and cytokine production ex vivo; type: cell-based, mouse
Protocol: Naïve or KP tumor bearing C57BL/6 mice were sacrificed and total splenocytes were harvested. Spleens were digested with collagenase D (Roche) and Dnase I (Roche) at 37° C. for 30 min, followed by 1×ACS lysis buffer (Biolegend) incubation to lyse red blood cells. The collected total splenocytes were stained with the fluorochome-conjugated cell surface markers CD3, CD4, CD8 and CD25 to isolate different T cell subpopulations, including conventional T cell Tconv (CD3+CD4+[…]), Treg (CD3+CD4+CD25+), and CD8+(CD3+CD8+) using BD FACSAria II SORP cell sorter (BD Bioscience). DAPI (4′,6-diamidino-2-phenylindole) staining was used to exclude dead cells. Sorted cells were cultured in 96-well plates pre-coated with CD3 antibody (eBioscience) and treated with trilaciclib in the presence of CD28 (eBioscience). Cells were collected 3 days after culturing and cytokine production of IFNγ and IL-2 was determined by intracellular staining and analyzed on BD LSRFortessa (BD Bioscience).

total splenocytes = experiment: IFNγ production (ELISA) by splenocytes of mice treated in vivo; parameters: species or system mouse; conditions: tumor-bearing mice, 100 mg/kg IP
Protocol: FIG. 11. Tumor antigen experienced T cells are more sensitive to CDK4/6 inhibition. A. Naive C57BL/6 mice were treated with trilaciclib (100 mg/kg, IP) or vehicle for three days. Two and seven days after the final treatment, splenocytes were isolated and stimulated with α-CD3/CD28 antibodies for 72 hours to measure IFNγ production by ELISA. B. C57BL/6 mice were implanted with B16F10 tumor cells. Seven days post implantation mice were treated with trilaciclib (100 mg/kg, IP) or vehicle for 5 days. Five days post final treatment splenocytes were isolated and stimulated with α-CD3/CD28 antibodies for IFNγ production by ELISA. C. IL-2 production from Tconv (CD4^+CD25^−) cells after trilaciclib treatment. Tconv cells were isolated from either naive or tumor bearing (TMB) mice and treated with trilaciclib at indicated concentrations, in the presence of CD3 and CD28 antibodies. IL-2 production was determined 3 days after the treatment as percentage. (n=3) IFNγ production in CD8^+ T cells alone from naive or TMB mice after treatment with trilaciclib, as shown by percentage (D) or fold change (E). (n=3) F. Increased IFNγ production in CD8+ T cells by trilaciclib in the presence of Tregs. […] IFNγ production was determined 3 days after the treatment as shown as percentage. […]

Structure (SMILES): CN1CCN(c2ccc(Nc3ncc4cc5n(c4n3)C3(CCCCC3)CNC5=O)nc2)CC1 [trilaciclib]
- log2(G1T28 vs vehicle) ([1]; gene Aifl): Aifl^65 1.045
- log2(G1T28 vs vehicle) ([1]; gene Ccl2): Ccl2^63, 690.6
- log2(G1T28 vs vehicle) ([1]; gene Ccl5): Ccl5^63 0.7416
- log2(G1T28 vs vehicle) ([1]; gene Ccna2): Ccna2^71 −1.194
- log2(G1T28 vs vehicle) ([1]; gene Ccnd1): Ccnd1^67 0.8223
- log2(G1T28 vs vehicle) ([1]; gene Ccr2): Ccr2^61 3.091
- log2(G1T28 vs vehicle) ([1]; gene Cd22): Cd22^72 −1.232
- log2(G1T28 vs vehicle) ([1]; gene Cd86): Cd86^70 0.621
- log2(G1T28 vs vehicle) ([1]; gene Clcf1): Clcf1^63 1.47
- log2(G1T28 vs vehicle) ([1]; gene Csfl): Csfl^63 0.5966
- log2(G1T28 vs vehicle) ([1]; gene Cx3cr1): Cx3cr1^22 1.233
- log2(G1T28 vs vehicle) ([1]; gene Cxcl1): Cxcl1^68 0.7175
- log2(G1T28 vs vehicle) ([1]; gene Ece1): Ece1^62 2.974
- log2(G1T28 vs vehicle) ([1]; gene Il2ra): Il2ra^66 0.9413
- log2(G1T28 vs vehicle) ([1]; gene Il7r): Il7r^64 1.461
- log2(G1T28 vs vehicle) ([1]; gene Tnfsf8): Tnfsf8^63 1.037
- IL-2 signaling activation ([1]; group 3, and group 1 to a lesser extent): significantly increased IL-2 signaling activation
- proportion of T cells in the G1 phase ([1]; groups 1 and 3): increased the proportion of T cells in the G1 phase
- selectivity for CDK4/6 (CDK4/6): significantly more selective for CDK4/6
- IL-2 production ([2]; Tconv cells treated ex vivo, 3 days, naïve vs tumor-bearing mice): increased IL-2 production only in cells from tumor-bearing mice
- increase of IFNγ production ([2]; splenic CD8+ T cells from tumor-bearing mice co-cultured with Tregs): ~10 fold
- IFNγ secretion of total splenocytes (total splenocytes): increased IFNγ secretion
